For 2 compounds, TGI results are on record in PubChem BioAssay (NCI).

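Exposure lasted 48 hours, with cells grown in 96-well plates and compounds tested at five concentrations. TGI marks complete inhibition of growth.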 Some results are limits rather than exact numbers.

Among the test systems are RXF-631 renal; P388 leukemia; P388/ADR leukemia; SN12K1 renal.
Common to all, as to assay: NCI tumour cell line growth inhibition, 48 h

Consider `COc1cc(C(=O)CC2OC(=O)C(Cl)=C2Cl)ccc1Cl` (centres undefined), for which the TGI in the assay on RXF-631 renal is greater than 100 µM.
Take `Cc1ccc(C2COc3cc(O)c(O)cc3C2)cc1` (centres undefined): the TGI with P388 leukemia is 750 µM; in the assay on P388/ADR leukemia it was 750 µM; in the assay with SN12K1 renal, 75 µM.
